Assays:
NV 3CL protease = NV 3CL protease (Norovirus, UniProt Q83883); experiment: biochemical; parameters: species or system norovirus strain Norwalk
[1] = test system: NV in replicon-harboring cells; experiment: cell-based norovirus replicon system (NV replicon-harboring cells, HG23); conditions: Norwalk virus, α-hydroxyphosphonates, mixtures of epimers
EV71 3C protease = EV71 3C protease (Human enterovirus 71, UniProt Q66478); experiment: biochemical
SARS-CoV 3CL protease = SARS-CoV 3CL protease (Severe acute respiratory syndrome coronavirus, UniProt P0C6X7); experiment: biochemical
cells = experiment: cell cytotoxicity (microscopy and CytoTox 96 assay); assay type: cell-based
Source text: Cell Cytotoxicity. The nonspecific cytotoxic effects of each compound on cells were monitored by observation under a microscopy and CytoTox 96 Non-radioactive cytotoxicity assay (Promega, Madison, Wis.).

Chain of NV 3CL protease (Q83883 1101-1281 limits assumed): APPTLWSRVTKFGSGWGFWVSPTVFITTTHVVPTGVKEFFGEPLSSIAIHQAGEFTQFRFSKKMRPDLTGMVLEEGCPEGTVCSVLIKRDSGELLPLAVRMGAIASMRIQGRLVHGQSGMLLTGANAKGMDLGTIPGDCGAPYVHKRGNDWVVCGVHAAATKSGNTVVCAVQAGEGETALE
Chain of EV71 3C protease (Q66478 1549-1731 limits assumed): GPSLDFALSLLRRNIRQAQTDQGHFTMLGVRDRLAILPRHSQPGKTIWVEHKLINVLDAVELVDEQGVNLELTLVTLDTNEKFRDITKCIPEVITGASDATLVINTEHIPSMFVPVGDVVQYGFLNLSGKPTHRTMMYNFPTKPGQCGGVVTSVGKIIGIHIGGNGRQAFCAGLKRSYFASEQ

SMILES | IC50 (NV 3CL protease) | EC50 [1] | IC50 (EV71 3C protease) | IC50 (SARS-CoV 3CL protease) | toxicity to cells (no toxicity up to) (cells)
O=C(N[C@@H](CC1CCCCC1)C(=O)N[C@@H](CC1CCNC1=O)C(O)P(=O)(OCc1ccccc1)OCc1ccccc1)OCc1ccccc1 (mixture of isomers) [Compound 7h] | > 50 µM | 0.6 µM |  |  | 
COP(=O)(OC)C(O)[C@H](CC1CCNC1=O)NC(=O)[C@H](CC(C)C)NC(=O)OCc1ccccc1 (mixture of isomers) [Compound 7b] | > 50 µM | 3.5 µM |  |  | 
CCOP(=O)(OCC)C(O)[C@H](CC1CCNC1=O)NC(=O)[C@H](CC1CCCCC1)NC(=O)OCc1ccccc1 (mixture of isomers) [Compound 7d] | > 50 µM | 0.25 µM |  |  | 
CC(C)C[C@H](NC(=O)OCc1ccccc1)C(=O)N[C@@H](CC1CCNC1=O)C(O)P(=O)(O)O (mixture of isomers) [Compound 7c] | > 50 µM | 0.8 µM |  |  | 
CCCCOP(=O)(OCCCC)C(O)[C@H](CC1CCNC1=O)NC(=O)[C@H](CC1CCCCC1)NC(=O)OCc1ccccc1 (mixture of isomers) [Compound 7f] | > 50 µM | 0.5 µM |  |  | 
CCOP(=O)(OCC)C(O)[C@H](CC1CCNC1=O)NC(=O)[C@H](CC(C)C)NC(=O)OCc1ccccc1 (mixture of isomers) [Compound 7a] | > 50 µM | 1.1 µM |  |  | 
O=C(N[C@@H](CC1CCCCC1)C(=O)N[C@@H](CC1CCNC1=O)C(O)P(=O)(OCC(F)(F)F)OCC(F)(F)F)OCc1ccccc1 (mixture of isomers) [Compound 7g] | > 50 µM | 0.25 µM |  |  | 
COP(=O)(OC)C(O)[C@H](CC1CCNC1=O)NC(=O)[C@H](CC1CCCCC1)NC(=O)OCc1ccccc1 (mixture of isomers) [Compound 7e] | > 50 µM | 2.8 µM |  |  | 
CC(C)C[C@@H]1NC(=O)[C@@H](NC(=O)OCc2ccccc2)Cc2cn(nn2)CCCNC(=O)CC[C@@H](C=O)NC1=O [Compound 13, Benzyl(9-formyl-12-isobutyl-6,11,14-trioxo-1,5,10,13,18,19-hexaazabicyclo[15.2.1]icosa-17(20),18-dien-15-yl)carbamate] | 5.1 µM |  | 1.8 µM | 15.5 µM | 
O=CC(CC1CCNC1=O)NC(=O)C(CC1CCCCC1)N1C(=O)CCC(NC(=O)OCc2ccccc2)C1=O (centres unmarked) [Compound 5, Benzyl(1-(3-cyclohexyl-1-oxo-1-((1-oxo-3-(2-oxopyrrolidin-3-yl)propan-2-yl)amino)propan-2-yl)-2,6-dioxopperidin-3-yl)carbamate] |  |  |  |  | > 150 µM

— US9309284B2 (priority 2012, dated 2016)
